Measurements: patent publication US20250129430A1, “HIGH ATP-AFFINITY PROTEIN AS THERAPEUTIC TARGET FOR INTRACTABLE CANCER MOLECULAR SUBTYPES AND INHIBITOR THEREOF” (VeraVerse Co., Ltd., priority 2021, published 2025)
Counter-ions that a name gives are not always drawn.

What was measured:
Format in all cases: cell-based, human
SNU1 = assay: Cell viability drug screen, 12-point dose-response AUC; conditions: SNU1 cells, 72 hours; for area under the viability curve (AUC), normalized: 12-point dose-response
Method in brief: (§1)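 AUC values represent the area under DMSO-normalized 12-point curves, computed by trapezoid rule and averaged over repeated experiments. Each EMT-type gastric line was exposed to half-log serial concentrations for 72 h at 37 °C, and viability was measured with a Glo luminescence kit.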

SNU638 = assay: as above; conditions: SNU638 cells, 72 hours; for area under the viability curve (AUC), normalized: 12-point dose-response
Method in brief: as §1

SNU216 = assay: as above; conditions: 72 hours; for area under the viability curve (AUC), normalized: SNU216 cells, 12-point dose-response
Method in brief: (§2)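 AUC comes from 12-point half-log dose–response curves, normalized to DMSO-treated cells and integrated trapezoidally, repeats averaged. Luminescent viability read after 72 h compound exposure at 37 °C; cells plated 5×10^3 per well 24 h before dosing.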

MKN28 = assay: as above; conditions: MKN28 cells, 72 hours; for area under the viability curve (AUC), normalized: 12-point dose-response
Method in brief: as §1

NCI_N87 = assay: as above; conditions: NCI_N87 cells, 72 hours; for area under the viability curve (AUC), normalized: 12-point dose-response
Method in brief: as §1

SNU16 = assay: as above; conditions: SNU16 cells, 72 hours; for area under the viability curve (AUC), normalized: 12-point dose-response
Method in brief: as §1

SNU484 = assay: as above; conditions: 72 hours; for area under the viability curve (AUC), normalized: SNU484 cells, 12-point dose-response
Method in brief: as §1

KATO3 = assay: as above; conditions: KATO3 cells, 72 hours; for area under the viability curve (AUC), normalized: 12-point dose-response
Method in brief: as §1

MKN74 = assay: as above; conditions: MKN74 cells, 72 hours; for area under the viability curve (AUC), normalized: 12-point dose-response
Method in brief: as §2

AGS = assay: as above; conditions: 72 hours; for area under the viability curve (AUC), normalized: AGS cells, 12-point dose-response
Method in brief: as §2

NCC59 = assay: as above; conditions: NCC59 cells, 72 hours; for area under the viability curve (AUC), normalized: 12-point dose-response
Method in brief: as §1

SNU1750 = assay: as above; conditions: 72 hours; for area under the viability curve (AUC), normalized: SNU1750 cells, 12-point dose-response
Method in brief: as §1

NCC20 = assay: as above; conditions: NCC20 cells, 72 hours; for area under the viability curve (AUC), normalized: 12-point dose-response
Method in brief: as §1

SK4 = assay: as above; conditions: 72 hours; for area under the viability curve (AUC), normalized: SK4 cells, 12-point dose-response
Method in brief: as §1

SNU719 = assay: as above; conditions: SNU719 cells, 72 hours; for area under the viability curve (AUC), normalized: 12-point dose-response
Method in brief: as §2

YCC3 = assay: as above; conditions: YCC3 cells, 72 hours; for area under the viability curve (AUC), normalized: 12-point dose-response
Method in brief: as §1

OCUM1 = assay: as above; conditions: OCUM1 cells, 72 hours; for area under the viability curve (AUC), normalized: 12-point dose-response
Method in brief: as §1

YCC2 = assay: as above; conditions: YCC2 cells, 72 hours; for area under the viability curve (AUC), normalized: 12-point dose-response
Method in brief: as §1

SNU668 = assay: as above; conditions: 72 hours; for area under the viability curve (AUC), normalized: SNU668 cells, 12-point dose-response
Method in brief: as §1

NCC19 = assay: as above; conditions: NCC19 cells, 72 hours; for area under the viability curve (AUC), normalized: 12-point dose-response
Method in brief: as §1

NCC24 = assay: as above; conditions: NCC24 cells, 72 hours; for area under the viability curve (AUC), normalized: 12-point dose-response
Method in brief: as §1

MKN1 = assay: as above; conditions: MKN1 cells, 72 hours; for area under the viability curve (AUC), normalized: 12-point dose-response
Method in brief: as §1

Hs746T = assay: as above; conditions: 72 hours; for area under the viability curve (AUC), normalized: Hs746T cells, 12-point dose-response
Method in brief: as §1

SNU620 = assay: as above; conditions: SNU620 cells, 72 hours; for area under the viability curve (AUC), normalized: 12-point dose-response
Method in brief: as §1

SNU601 = assay: as above; conditions: SNU601 cells, 72 hours; for area under the viability curve (AUC), normalized: 12-point dose-response
Method in brief: as §1

SNU1967 = assay: as above; conditions: SNU1967 cells, 72 hours; for area under the viability curve (AUC), normalized: 12-point dose-response
Method in brief: as §1

MKN45 = assay: as above; conditions: 72 hours; for area under the viability curve (AUC), normalized: MKN45 cells, 12-point dose-response
Method in brief: as §2

YCC11 = assay: as above; conditions: 72 hours; for area under the viability curve (AUC), normalized: YCC11 cells, 12-point dose-response
Method in brief: as §1

FU97 = assay: as above; set-up: Average Area Under the Viability Curve (AUC), AUC norm value: scale not given here; conditions: FU97 cells, 72 hours; for area under the viability curve (AUC), normalized: 12-point dose-response
Method in brief: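 Trapezoidal AUC of a 12-point, DMSO-normalized dose-response curve. Luminescent viability was measured after 72 h of exposure at 37° C to half-log serial dilutions (0.5% DMSO control), dosed 24 h after plating FU97 cells at 5×10^3 per well.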

[1] = test system: non-SEM-type gastric cancer cell line; assay: Cell viability drug screen, AUC summary over non-SEM-type lines; conditions: in the non-SEM-type gastric cancer cell line

## Nc1cc(C(F)(F)F)c(-c2cc(N3CCOCC3)nc(N3CCOCC3)n2)cn1 [BKM120]
SNU1
  area under the viability curve (AUC), normalized: 0.2556
SNU638
  area under the viability curve (AUC), normalized: 0.01503
SNU216
  area under the viability curve (AUC), normalized: 0.1342
MKN28
  area under the viability curve (AUC), normalized: −0.0925
NCI_N87
  area under the viability curve (AUC), normalized: −0.38
SNU16
  area under the viability curve (AUC), normalized: −0.3076
SNU484
  area under the viability curve (AUC), normalized: −0.475
KATO3
  area under the viability curve (AUC), normalized: 2.449
MKN74
  area under the viability curve (AUC), normalized: −0.05182
AGS
  area under the viability curve (AUC), normalized: −1.094
NCC59
  area under the viability curve (AUC), normalized: 1.23
SNU1750
  area under the viability curve (AUC), normalized: −0.4392
NCC20
  area under the viability curve (AUC), normalized: −0.07502
SK4
  area under the viability curve (AUC), normalized: −1.247
SNU719
  area under the viability curve (AUC), normalized: 3.314
YCC3
  area under the viability curve (AUC), normalized: 1.085
OCUM1
  area under the viability curve (AUC), normalized: 0.7561
YCC2
  area under the viability curve (AUC), normalized: 0.7169
SNU668
  area under the viability curve (AUC), normalized: 0.2688
NCC19
  area under the viability curve (AUC), normalized: 0.6866
NCC24
  area under the viability curve (AUC), normalized: −0.4391
MKN1
  area under the viability curve (AUC), normalized: −0.1827
Hs746T
  area under the viability curve (AUC), normalized: 0
SNU620
  area under the viability curve (AUC), normalized: −0.08823
SNU601
  area under the viability curve (AUC), normalized: 0.9711
SNU1967
  area under the viability curve (AUC), normalized: 0.676
MKN45
  area under the viability curve (AUC), normalized: 1.074
YCC11
  area under the viability curve (AUC), normalized: −1.147
FU97
  area under the viability curve (AUC), normalized: −1.3007
[1]
  AUC value: high

## CN(C)c1ccc(C(=C2C=CC(=[N+](C)C)C=C2)c2ccc(N(C)C)cc2)cc1 [Crystal Violet, Crystal violet]
SNU1
  area under the viability curve (AUC), normalized: −0.5355
SNU638
  area under the viability curve (AUC), normalized: −0.4956
SNU216
  area under the viability curve (AUC), normalized: −0.02818
MKN28
  area under the viability curve (AUC), normalized: 0
NCI_N87
  area under the viability curve (AUC), normalized: 0.4907
SNU16
  area under the viability curve (AUC), normalized: −0.5668
SNU484
  area under the viability curve (AUC), normalized: −0.7108
KATO3
  area under the viability curve (AUC), normalized: 0.911
MKN74
  area under the viability curve (AUC), normalized: −0.5721
AGS
  area under the viability curve (AUC), normalized: −0.4769
NCC59
  area under the viability curve (AUC), normalized: 0.5098
SNU1750
  area under the viability curve (AUC), normalized: −0.5514
NCC20
  area under the viability curve (AUC), normalized: −1.031
SK4
  area under the viability curve (AUC), normalized: −1.015
SNU719
  area under the viability curve (AUC), normalized: 3.076
YCC3
  area under the viability curve (AUC), normalized: 0.9437
OCUM1
  area under the viability curve (AUC), normalized: 0.7741
YCC2
  area under the viability curve (AUC), normalized: 0.4289
SNU668
  area under the viability curve (AUC), normalized: 0.1937
NCC19
  area under the viability curve (AUC), normalized: 0.4873
NCC24
  area under the viability curve (AUC), normalized: 0.2743
MKN1
  area under the viability curve (AUC), normalized: 0.4211
Hs746T
  area under the viability curve (AUC), normalized: −0.2085
SNU620
  area under the viability curve (AUC), normalized: −0.7672
SNU601
  area under the viability curve (AUC), normalized: 0.9442
SNU1967
  area under the viability curve (AUC), normalized: 0.3458
MKN45
  area under the viability curve (AUC), normalized: 1.101
YCC11
  area under the viability curve (AUC), normalized: −0.8996
FU97
  area under the viability curve (AUC), normalized: −0.985
[1]
  AUC value: high

## CCCCc1oc2ccc(NS(C)(=O)=O)cc2c1C(=O)c1ccc(OCCCN(CCCC)CCCC)cc1 [Dronedarone HCl (Multaq), Dronedarone HCl]
SNU1
  Average Area Under the Viability Curve (AUC), AUC norm value: 1.295
SNU638
  Average Area Under the Viability Curve (AUC), AUC norm value: −0.5649
SNU216; SNU216 cells (non-SEM subtype)
  Average Area Under the Viability Curve (AUC), AUC norm value: 0.08211
MKN28
  Average Area Under the Viability Curve (AUC), AUC norm value: −0.1927
NCI_N87
  Average Area Under the Viability Curve (AUC), AUC norm value: −0.08952
SNU16
  Average Area Under the Viability Curve (AUC), AUC norm value: −0.2149
SNU484; SNU484 cells (SEM subtype)
  Average Area Under the Viability Curve (AUC), AUC norm value: −0.2497
KATO3
  Average Area Under the Viability Curve (AUC), AUC norm value: 0.1721
MKN74
  Average Area Under the Viability Curve (AUC), AUC norm value: −1.381
AGS; AGS cells (non-SEM subtype)
  Average Area Under the Viability Curve (AUC), AUC norm value: −0.6415
NCC59
  Average Area Under the Viability Curve (AUC), AUC norm value: 0.6769
SNU1750; SNU1750 cells (SEM subtype)
  Average Area Under the Viability Curve (AUC), AUC norm value: 0.06657
NCC20
  Average Area Under the Viability Curve (AUC), AUC norm value: −0.2985
SK4; SK4 cells (SEM subtype)
  Average Area Under the Viability Curve (AUC), AUC norm value: −0.3488
SNU719
  Average Area Under the Viability Curve (AUC), AUC norm value: 1.291
YCC3
  Average Area Under the Viability Curve (AUC), AUC norm value: 0.8816
OCUM1
  Average Area Under the Viability Curve (AUC), AUC norm value: 0.02571
YCC2
  Average Area Under the Viability Curve (AUC), AUC norm value: −0.08246
SNU668; SNU668 cells (SEM subtype)
  Average Area Under the Viability Curve (AUC), AUC norm value: 0.4123
NCC19
  Average Area Under the Viability Curve (AUC), AUC norm value: −0.3711
NCC24
  Average Area Under the Viability Curve (AUC), AUC norm value: 1.044
MKN1
  Average Area Under the Viability Curve (AUC), AUC norm value: 0
Hs746T; Hs746T cells (SEM subtype)
  Average Area Under the Viability Curve (AUC), AUC norm value: −0.03562
SNU620
  Average Area Under the Viability Curve (AUC), AUC norm value: −0.3353
SNU601
  Average Area Under the Viability Curve (AUC), AUC norm value: 3.848
SNU1967
  Average Area Under the Viability Curve (AUC), AUC norm value: 0.1919
MKN45; MKN45 cells (non-SEM subtype)
  Average Area Under the Viability Curve (AUC), AUC norm value: 0.6772
YCC11; YCC11 cells (SEM subtype)
  Average Area Under the Viability Curve (AUC), AUC norm value: −0.521
FU97
  Average Area Under the Viability Curve (AUC), AUC norm value: 0.3807
[1]
  AUC value: high
